# Data reported in patent US5210193A, “Piperazine derivatives” (American Cyanamid Company, priority 1990, dated 1993).
# Columns and labels:
# Assay in all cases: in vitro antibacterial MIC, agar plate dilution
# Assay type in all cases: cell-based
# [1] = system: Escherichia coli ATCC 25922; settings: Escherichia coli, ATCC25922, 18 h, 35° C., read-out: MIC
# Description: (§1) The in vitro antimicrobial spectrum of the compounds of ths invention were determined by the agar plate dilution method with Mueller-Hinton agar and an inoculum of each test organism of approximately 10^4 colony forming units delivered by the Steers replicating device. The minimal inhibitory concentration (MIC) in mcg/ml is defined as the lowest concentration of test compound that inhibited visible growth after 18 hours incubation at 35° C. Results are given in Table I, with the test compounds identified by the number of their hereinafter described examples.
# [2] = system: Enterobacter cloacae VGH 84-37; settings: Enterobacter cloacae, VGH8437, 18 h, 35° C., read-out: MIC
# Description: as §1
# [3] = system: Enterobacter aerogenes VGH 84-36; settings: Klebsiella aerogenes, VGH8436, 18 hours, 35° C., read-out: MIC
# Description: as §1
# [4] = system: Klebsiella pneumoniae AD; settings: Klebsiella pneumoniae, 18 h, 35° C., read-out: MIC
# Description: as §1
# [5] = system: Escherichia coli CMC 84-11; settings: Escherichia coli, CMC8411, 18 h, 35° C., read-out: MIC
# Description: as §1
# [6] = system: Proteus rettgeri CMC 84-41; settings: Providencia rettgeri, CMC8441, 18 h, 35° C., read-out: MIC
# Description: as §1
# [7] = system: Pseudomonas aeruginosa VGH 84-4; settings: Pseudomonas aeruginosa, VGH844, 18 h, 35° C., read-out: MIC
# Description: as §1
# [8] = system: Morganella morganii VGH 84-11; settings: VGH8411, 18 hours, 35° C., read-out: MIC
# Description: as §1
# [9] = system: Staphylococcus aureus Smith; settings: Staphylococcus aureus, 18 h, 35° C., read-out: MIC
# Description: as §1
# [10] = system: Staphylococcus aureus ATCC 25913; settings: ATCC25913, 18 hours, 35° C.
# Description: as §1
# [11] = system: Klebsiella pneumoniae MOR 84-4; settings: Klebsiella pneumoniae, MOR844, 18 h, 35° C., read-out: MIC
# Description: as §1
MIC [1] [µg/mL],MIC [2] [µg/mL],MIC [3] [µg/mL],MIC [4] [µg/mL],MIC [5] [µg/mL],MIC [6] [µg/mL],MIC [7] [µg/mL],MIC [8] [µg/mL],MIC [9] [µg/mL],MIC [10] [µg/mL],MIC [11] [µg/mL],SMILES
4,4,16,4,4,8,32,8,0.25,1,8,"CCn1cc(C(=O)O)c(=O)c2cc(F)c(N3CCN(C)C(c4cccs4)C3)cc21 (stereo not shown) [Example 31, 1-Ethyl-6-fluoro-1,4-dihydro-7-[4-methyl-3-(2-thienyl)piperazinyl]-4-oxo-3-quinolinecarboxylic acid]"
4,8,4,4,4,4,> 256,8,0.25,0.25,8,"CCn1cc(C(=O)O)c(=O)c2cc(F)c(N3CCN(C)C(c4ccc(C)s4)C3)cc21 (stereo not shown) [Example 38, 1-Ethyl-6-fluoro-1,4-dihydro-7-[4-methyl-3-(5-methyl-2-thienyl)-1-piperazinyl]-4-oxo-3-quinolinecarboxylic acid]"
2,1,2,1,1,0.5,32,2,1,2,2,"CCn1cc(C(=O)O)c(=O)c2cc(F)c(N3CCN(C)C(COC)C3)cc21 (stereo not shown) [Example 10, 1-Ethyl-6-fluoro-1,4-dihydro-7-[3-(methoxymethyl)-4-methyl-1-piperazinyl]-4-oxo-3-quinolinecarboxylic acid]"
16,32,> 256,16,16,16,> 256,16,0.5,2,64,"CCn1cc(C(=O)O)c(=O)c2cc(F)c(N3CCNC(c4ccc(Br)s4)C3)cc21 (stereo not shown) [Example 13, 7-[3-(5-Bromo-2-thienyl)-1-piperazinyl]-1-ethyl-6-fluoro-1,4-dihydro-4-oxo-3-quinolinecarboxylic acid]"
0.5,0.25,1,0.5,0.5,0.5,8,0.5,≤ 0.12,0.5,0.5,"CCn1cc(C(=O)O)c(=O)c2cc(F)c(N3CCNC(COc4ccccc4)C3)cc21 (stereo not shown) [Example 9, 1-Ethyl-6-fluoro-1,4-dihydro-4-oxo-7-[3-(phenoxy-methyl]-1-piperazinyl]-3-quinolinecarboxylic acid]"
1,1,4,2,1,2,16,2,0.25,1,2,"CCn1cc(C(=O)O)c(=O)c2cc(F)c(N3CCN(C)C(c4ccco4)C3)cc21 (stereo not shown) [Example 32, 1-Ethyl-6-fluoro-7-[3-(2-furanyl)-4-methyl-1-piperazinyl]-1,4-dihydro-4-oxo-3-quinolinecarboxylic acid]"
0.5,0.5,0.5,0.5,0.25,0.5,8,0.5,≤ 0.12,0.25,0.5,"CCn1cc(C(=O)O)c(=O)c2cc(F)c(N3CCNC(c4cc(C)cs4)C3)cc21 (stereo not shown) [Example 40, 1-Ethyl-6-fluoro-1,4-dihydro-7-[3-(4-methyl-2-thienyl)-1-piperazinyl]-4-oxo-3-quinolinecarboxylic acid]"
2,2,4,2,1,2,32,2,≤ 0.12,0.5,4,"CCn1cc(C(=O)O)c(=O)c2cc(F)c(N3CCN(C)C(c4ccsc4)C3)cc21 (stereo not shown) [Example 35, 1Ethyl-6-fluoro-1,4-dihydro-7-[4-methyl-3-(3-thienyl)-1-piperazinyl]-4-oxo-3-quinolinecarboxylic acid]"
2,1,4,2,2,2,16,2,0.5,2,4,"CCn1cc(C(=O)O)c(=O)c2cc(F)c(N3CCNC(CN(C)C)C3)cc21 (stereo not shown) [Example 2, 7-[3-[(Dimethylamino)methyl]-1-piperazinyl]-1-ethyl-6-fluoro-1,4-dihvdro-4-oxo-3-quinolinecarboxylic acid]"
1,0.5,2,1,0.5,1,16,0.5,0.25,0.5,1,"CCn1cc(C(=O)O)c(=O)c2cc(F)c(N3CCNC(c4cccs4)C3)cc21 (stereo not shown) [Example 26, 1-Ethyl-6-fluoro-1,4-dihydro-4-oxo-7-[3-(2-thienyl)-1-piperazinyl]-3-auinolinecarboxylic acid]"
0.5,0.25,0.5,0.25,0.25,0.5,8,0.25,0.5,2,0.5,"CCn1cc(C(=O)O)c(=O)c2cc(F)c(N3CCNC(COC)C3)cc21 (stereo not shown) [Example 7, 1-Ethyl-6-fluoro-1,4-dihydro-7-[3-(methoxymethyl)-1-piperazinyl]-4-oxo-3-quinolinecarboxylic acid]"
4,4,8,4,2,2,64,4,1,2,8,"CCn1cc(C(=O)O)c(=O)c2cc(F)c(N3CCN(C)C(COc4ccccc4)C3)cc21 (stereo not shown) [Example 11, 1-Ethyl-6-fluoro-1,4-dihydro-7-[4-methyl-3-(phenoxy-methyl)-1-piperazinyl]-4-oxo-3-quinolinecarboxylic acid]"
0.25,0.25,0.5,≤ 0.12,≤ 0.12,0.25,4,0.25,≤ 0.12,≤ 0.12,0.25,"CCn1cc(C(=O)O)c(=O)c2cc(F)c(N3CCNC(c4ccc(C)o4)C3)cc21 (stereo not shown) [Example 42, 1-Ethyl-6-fluoro-1,4-dihydro-7-[3-(5-methyl-2-furanyl)-1-piperazinyl]-4-oxo-3-quinolinecarboxylic acid]"
1,1,4,1,1,1,16,1,0.25,0.25,2,"CCn1cc(C(=O)O)c(=O)c2cc(F)c(N3CCNC(c4ccc(Cl)s4)C3)cc21 (stereo not shown) [Example 34, 7-[3-(5-Chloro-2-thienyl)-1-piperazinyl]-1-ethyl-6-fluoro-1,4-dihydro-4-oxo-3-quinolinecarboxylic acid]"
